For assay [1], the system named is allergic airway inflammation. Briefly: mouse model of allergic airway inflammation (OVA/Alum sensitization, OVA aerosol challenge): BAL cells and lung sections. Type of assay: in vivo, mouse (BALB/c). The procedure: Female BALB/c mice (Charles River, Sulzfeld, Germany) aged 7-8 weeks were used and acclimated to the animal facility for 14 days prior to experiments. Animals had access to food and water ad libitum. All experimental procedures were approved by the responsible animal ethics committees. Mice were sensitized by intraperitoneal injection of 20 μg ovalbumin (OVA; GradeV; Sigma, St. Louis, Mo.) emulsified in 2.2 mg aluminum hydroxide (ImjectAlum; Pierce, Rockford, Ill.) in a total volume of 200 μl on days 1 and 14. On days 28 and 38 mice were challenged via the airways with 1% OVA aerosol for 20 min using a PARI-Boy aerosol generator. Mice were treated with the synthetic substances during the sensitization phase. Substances were administered intranasally in 50 μl of PBS. Mice were treated 14 times beginning on the day of the first OVA injection and the last treatment six days before the second OVA-aerosol challenge. Control groups were sensitized as described above and treated 14 times with phosphate buffered saline (PBS). Three days after OVA challenge lungs were lavaged via a tracheal tube with 2×1 ml PBS, and leukocytes in the lavage fluid were counted. After centrifugation, BAL fluid was frozen for further analysis. […] The percentages of eosinophils, lymphocytes and macrophages in BAL samples were determined by light microscopy. […]

The subject of assay [2] is IL-5 and IL-13 production by spleen cells. Briefly: in vitro cytokine production (IL-5, IL-13) of mouse splenocytes re-stimulated with OVA after in vivo treatment. As to conditions: FIG. 3, i.n. treatment during sensitization and challenge. Details: species or system mouse (BALB/c). The protocol:
(§1) Mice were sensitized by intraperitoneal injection of 20 μg ovalbumin (OVA; GradeV; Sigma, St. Louis, Mo.) emulsified in 2.2 mg aluminum hydroxide (ImjectAlum; Pierce, Rockford, Ill.) in a total volume of 200 μl on days 1 and 14. On days 28 and 38 mice were challenged via the airways with 1% OVA aerosol for 20 min using a PARI-Boy aerosol generator.
(§2) Mice were treated with the synthetic substances during the sensitization phase. Substances were administered intranasally in 50 μl of PBS. Mice were treated 14 times beginning on the day of the first OVA injection and the last treatment six days before the second OVA-aerosol challenge. Control groups were sensitized as described above and treated 14 times with phosphate buffered saline (PBS).
Spleens were harvested 3 days after the second aerosol challenge. Single cell suspensions were prepared by mechanical disruption and erythrocytes were lysed. Spleen cells were then cultured at a concentration of 5×10^6/ml in complete tissue culture medium (CTCM) (RPMI 1640 with 10% fetal calf serum (FCS), 2 mM L-glutamine, 100 U/ml penicillin, 100 μg/ml streptomycin, all from Biochrom, Berlin, Germany). To stimulate specific cytokine production OVA was added to a final concentration of 50 μg/ml. […] Levels of IL-5 and IL-13 were assessed by using optEIA kits (BD Biosciences, Heidelberg, Germany) according to the manufacturer's instructions.

For another assay, the system named is IgE. Kind of assay: total IgE in BAL fluid by ELISA in OVA/Alum mouse model. Type of assay: in vivo, mouse (BALB/c). As to conditions: FIG. 3, i.n. treatment. The protocol:
as §1, §2
Blood was collected by tail vein puncture two days after the second aerosol challenge. BAL was collected as described above. Levels of total IgE in serum or BAL fluid were determined by ELISA (Ebioscience). Levels of BSA-specific IgG1 were determined by indirect ELISA. Briefly, plates were coated with 50 μg/ml BSA followed by blocking with 1% low fat milk powder. The serum was diluted 1/100 in PBS and incubated on the BSA coated wells for 1 h, followed by detection of bound antibodies by alkaline phosphatase coupled rat anti mouse IgG1 (BDbiosciences).
For orientation: In an ELISA, binding on a coated surface is turned into a signal by an enzyme label.

For the molecule `OCC1O[C@@H](OCC2O[C@@H](OCC3O[C@@H](OCCCCCc4ccc(N=C=S)cc4)C(O)C(O)[C@H]3O)C(O)C(O[C@H]3O[C@@H](CO[C@@H]4O[C@@H](CO)C(O)C4O)C(O)C3O)[C@H]2O)C(O)C(O)[C@H]1O` (stereo partly shown) [Araf2Galp3], the eosinophilic airway inflammation entry in assay [1] (FIG. 3, i.n. treatment, BAL) is recorded as “not able to reduce these parameters significantly”. In addition, the goblet cell metaplasia result in assay [1] (FIG. 3 experiment, determined in lung sections) is recorded as “not able to reduce these parameters significantly”. Also, the “Th2 response as measured by in vitro production of IL-5 and IL-13 by spleen cells” value in assay [2] is “not able to reduce these parameters significantly”. Moreover, the IgE production entry in the assay with IgE is “not able to reduce these parameters significantly”.

These data come from patent US11179407B2, “Method for synthetically producing arabinogalactan compounds derived from plants and uses of said compounds for the prophylaxis of allergic reactions” (Forschungszentrum Borstel Leibniz-Zentrum für Medizin und …, priority 2015, dated 2021).
